Test results as given in patent publication US10364256B2 (GlaxoSmithKline Intellectual Property Development Limited, priority 2015, dated 2019).
Like-named read-outs stand apart in the source and are kept apart here.

Assays:
[1] = target: T1, full length Keap1 protein / full length NRF2 protein (Homo sapiens, UniProt Q14145); experiment: NRF2-Keap1 TR-FRET Low Protein Assay; format: binding; settings: 1.25 nM Keap1 FlagHis and 2.5 nM biotin-NRF2 added
T1 construct: full length NRF2 protein and full length Keap1 protein (Keap1 exists a dimer) are used; His
T1 sequence (Q14145 whole entry): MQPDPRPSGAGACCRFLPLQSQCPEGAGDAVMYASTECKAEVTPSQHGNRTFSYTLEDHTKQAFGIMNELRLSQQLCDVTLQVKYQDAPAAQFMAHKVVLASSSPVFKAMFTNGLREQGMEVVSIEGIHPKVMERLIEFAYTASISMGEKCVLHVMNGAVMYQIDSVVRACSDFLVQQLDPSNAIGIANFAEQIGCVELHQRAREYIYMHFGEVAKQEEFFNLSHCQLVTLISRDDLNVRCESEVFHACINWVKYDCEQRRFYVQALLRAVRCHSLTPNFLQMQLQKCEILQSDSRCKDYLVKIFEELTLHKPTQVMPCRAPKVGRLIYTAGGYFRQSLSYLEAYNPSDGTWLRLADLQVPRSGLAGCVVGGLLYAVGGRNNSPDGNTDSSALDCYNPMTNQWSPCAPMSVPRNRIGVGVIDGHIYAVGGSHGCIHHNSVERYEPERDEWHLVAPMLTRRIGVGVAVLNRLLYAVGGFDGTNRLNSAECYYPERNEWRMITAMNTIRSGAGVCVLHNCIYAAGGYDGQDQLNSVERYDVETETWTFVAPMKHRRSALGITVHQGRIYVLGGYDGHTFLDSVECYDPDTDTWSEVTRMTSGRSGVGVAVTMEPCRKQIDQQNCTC
Excerpt: NRF2-Keap1 TR-FRET Low Protein Assay In the NRF2-Keap1 TR-FRET (time-resolved fluorescence resonance energy transfer) low protein assay, full length NRF2 protein and full length Keap1 protein (Keap1 exists a dimer) are used. The assay detects a compound's ability to displace the binding of Keap1 […] with biotinylated Avi-NRF2 protein. Biotin-NRF2 binds to streptavidin-europium (a component of the detection mix) and Keap1 […] is recognized by anti-Flag APC (allophycocyanin) antibody (also a component of the detection mix). If binding occurs between the two proteins, there will be an energy transfer from the Eu+3 (donor) at 615 nm to the APC (acceptor) at 665 nm. A potential NRF2 inhibitor will cause a reduction in the TR-FRET signal by interfering with the binding of Keap1 to NRF2. Ten nanoliters of 100× compound dose response curves (serial 3-fold dilutions) in DMSO are stamped using an Echo liquid handling system (Labcyte) into 384-well, low volume, black assay plates (Greiner, #784076), with DMSO in columns 6 and 18. An additional 90 nl DMSO is added to each well, to bring the total volume to 100 nl per well. The top concentration of compound is located in columns 1 and 13, with the serial dilutions going across the row. All reagents are diluted in assay buffer (50 mM Tris, pH 8.0, 5 mM MgCl2, 100 mM NaCl, 0.005% BSA, 1 mM DTT, and 2 mM CHAPS. The BSA, DTT, and CHAPS are added to the assay buffer on the day of assay. […] Wells in column 18 receive 5 ul of assay buffer instead. Plates are centrifuged at 500 rpm for 1 minute, covered with a plate lid, and incubated at 37° C. for 2.25 hours. Plates are then removed from the incubator and allowed to cool to RT for 15 minutes. Five microliters of 2.5 nM biotin-NRF2 protein is then added to all wells of the plates and the plates are spun at 500 rpm for 1 minute, followed by incubating at 4° C. for 1.25 hours. The plates are then allowed to warm to RT for 15 minutes, followed by the addition of 10 ul of detection mix (1 nM Streptavidin Eu+W1024 and 5 ug/ml mouse anti-DYKDDDDK IgG conjugated to SureLight APC antibody; both from Columbia Biosciences) to all wells. Plates are spun at 500 rpm for 1 minute, incubated for 1 hour at RT, and read on an Envision plate reader using a 320 nm excitation filter and 615 nm and 665 nm emission filters. […] Data analysis is handled using the software package Abase XE (Surrey, United Kingdom). […] For calculation of pIC50s, Abase XE uses a four parameter equation. pIC50 is the negative log of the IC50.

[2] = system: NQO1 specific enzyme activity in BEAS-2B cells (marker for NRF2 activation); experiment: BEAS-2B NQO1 MTT Assay; format: cell-based; settings: compound incubated 48 hours, read-out: EC50 (NQO1 specific enzyme activity induction)
Excerpt: BEAS-2B NQO1 MTT Assay NAD(P)H:quinone oxidoreductase 1 (NQO1), also called DT diaphorase, is a homodimeric FAD-containing enzyme that catalyzes obligatory NAD(P)H-dependent two-electron reductions of quinones and protects cells against the toxic and neoplastic effects of free radicals and reactive oxygen species arising from one-electron reductions. The transcription of NQO1 is finely regulated by NRF2, and thus NQO1 activity is a good marker for NRF2 activation. On day one, frozen BEAS-2B cells (ATCC) are thawed in a water bath, counted, and re-suspended at a concentration of 250,000 cells/mL. Fifty microliters of cells are plated in 384 well black clear-bottomed plates. Plates are incubated at 37° C., 5% CO2 overnight. On day two, plates are centrifuged and 50 nL of compound or controls are added to the cells. Plates are then incubated at 37° C., 5% CO2 for 48 hours. On day four, medium is aspirated from the plate and crude cell lysates are made by adding 13 uL of 1× Cell Signaling Technologies lysis buffer with 1 Complete, Mini, EDTA-free Protease Inhibitor Tablet (Roche) for each 10 mL of lysis buffer. After lysis plates are incubated for 20 minutes at room temperature. Two microliters of lysate are removed for use in Cell Titer Glo assay (Promega) and MTT cocktail is prepared (Prochaska et. al. 1998) for measurement of NQO1 activity. Fifty microliters of MTT cocktail is added to each well, plate is centrifuged, and analyzed on an Envision plate reader (Perkin Elmer) using Absorbance 570 nm label for 30 minutes. Product formation is measured kinetically and the pEC50 of NQO1 specific activity induction is calculated by plotting the change in absorbance (Delta OD/min) versus the log of compound concentration followed by 3-parameter fitting. pEC50 is the negative log of the EC50.

[3] = target: T2, Keap1 Kelch domain (321-609) / TAMRA-labeled 16mer NRF2 peptide (ETGE motif) (Homo sapiens, UniProt Q14145); experiment: NRF2-Keap1 FP Assay (Keap1 Kelch fluorescence polarization); format: binding; settings: 20 nM Keap1 (321-609), 8 nM Tamra labeled peptide
T2 construct: the Kelch domain (321-609) of Keap1 is used
T2 sequence (Q14145 321-609): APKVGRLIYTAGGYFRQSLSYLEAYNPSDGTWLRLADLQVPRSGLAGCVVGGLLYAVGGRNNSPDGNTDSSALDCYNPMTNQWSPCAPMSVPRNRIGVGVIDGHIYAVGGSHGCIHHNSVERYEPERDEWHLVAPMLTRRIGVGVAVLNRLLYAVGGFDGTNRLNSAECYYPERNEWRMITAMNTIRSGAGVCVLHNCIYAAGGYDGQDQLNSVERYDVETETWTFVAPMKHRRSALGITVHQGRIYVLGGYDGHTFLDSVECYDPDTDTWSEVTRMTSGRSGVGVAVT
Excerpt: One model for the NRF2-Keap1 interaction is through two binding sites in the Neh2 domain on NRF2. The two sites are referred to as the DLG binding motif (latch domain, uM affinity) and the ETGE binding motif (hinge domain, nM affinity). The Keap1 protein consists of an N-terminal region (NTR), a broad complex, tramtrack, and brick a′ brac domain (BTB), an intervening region (IVR), a double glycine repeat domain (DGR or Kelch), and a C-terminal region. The DLG and ETGE motifs of NRF2's Neh2 domain bind to the Kelch domain of Keap1 at different affinities. In the Keap1 Kelch fluorescence polarization (FP) assay, a TAMRA-labeled 16mer peptide (AFFAQLQLDEETGEFL) containing the ETGE motif of NRF2 and the Kelch domain (321-609) of Keap1 is used. The assay determines if a compound interferes with the binding between Keap1 […] and the TAMRA-labeled peptide. Binding of TAMRA-labeled NRF2 peptide to Keap1 (321-609) results in a high FP signal. If a compound interferes with the binding between the peptide and the protein, it will cause the assay signal to decrease. Thus, assay signal is inversely proportional to binding inhibition.
100 nl of 100× compound dose response curves (serial 3-fold dilutions) in DMSO are stamped using an Echo liquid handling system (Labcyte) into 384-well low volume black assay plates (Greiner, #784076), with DMSO in columns 6 and 18. The top concentration of compound is located in columns 1 and 13. Keap1 (321-609) is diluted to 40 nM (2×) in 1× assay buffer (50 mM Tris, pH 8.0, 100 mM NaCl, 5 mM MgCl2, 1 mM DTT, 2 mM CHAPS, and 0.005% BSA) and 5 ul is added using a Multidrop Combi (Thermo Electron Corporation) equipped with a metal tip dispenser to all wells of the compound plate, except column 18. Column 18 receives only 5 ul of assay buffer. Immediately, 5 uL of 16 nM (2×) of Tamra labeled peptide (AFFAQLQLDEETGEFL, 21st Century Biochemicals) is added to all wells of the plate. The plates are spun at 500 rpm for 1 min, incubated for 1 hr at room temperature, and read on an Analyst GT (Molecular Devices) equipped with excitation (530/25 nm) and emission (580/10 nm) filters designed for Tamra probes. A 561 nm dichroic mirror is also used in the Analyst. The final assay concentrations of Keap1 (321-609) and Tamra labeled peptide are 20 nM and 8 nM, respectively. Fluorescence measurements, represented as mP, are used in the transformation of the data. Compound activity is calculated based on percent inhibition, normalized against controls in the assay (Control 1 contains the Tamra peptide and Keap1 (321-609) together (0% response) and control 2 contains the Tamra peptide alone (100% response)). Data analysis is handled using the software package Abase XE (Surrey, United Kingdom. The % inhibition values are calculated by the equation: 100−(100*((compound response−average control 2)/(average control 1−average control2))). For calculation of pIC50s, Abase XE uses a four parameter equation. pIC50 is the negative log of the IC50.

Compound	EC50 ([2]; Homo sapiens)	other results
C[C@H](Oc1cccc(-c2cccc(-n3ncc(C(=O)O)c3[C@@H]3C[C@H]3c3cn(C)nn3)c2)c1)C1CCCCCC1 [Example 73, 1-(3′-((S)-1-Cycloheptylethoxy)-[1,1′-biphenyl]-3-yl)-5-((1R,2R)-2-(1-methyl-1H-1,2,3-triazol-4-yl)cyclopropyl)-1H-pyrazole-4-carboxylic Acid]	1 to 10 nM	IC50 [1]: < 10 nM; IC50 [3]: 10 to 100 nM
C[C@H](Oc1cccc(-c2cccc(-n3ncc(C(=O)O)c3[C@@H]3C[C@H]3c3cn(C4CCOCC4)nn3)c2)c1)C1CCCCC1 (racemic) [Example 83, 1-(3′-((S)-1-Cyclohexylethoxy)-[1,1′-biphenyl]-3-yl)-5-(trans-2-(1-(tetrahydro-2H-pyran-4-yl)-1H-1,2,3-triazol-4-yl)cyclopropyl)-1H-pyrazole-4-carboxylic acid]	1 to 10 nM	
CCC[C@@H]1CCCCN1C(=O)c1cccc(-c2cccc(-n3ncc(C(=O)O)c3[C@@H]3C[C@H]3c3cn(C)nn3)c2)c1 (racemic) [Example 199, 5-((1,2-trans)-2-(1-methyl-1H-1,2,3-triazol-4-yl)cyclopropyl)-1-(3′-((R)-2-propylpiperidine-1-carbonyl)-[1,1′-biphenyl]-3-yl)-1H-pyrazole-4-carboxylic acid]		EC50 ([2]; Homo sapiens, BEAS-2B, 48 h): 10 to 100 nM
C[C@H](Oc1cccc(-c2cccc(-n3ncc(C(=O)O)c3[C@@H]3C[C@H]3c3c[nH]nn3)c2)c1)C1CCCCC1 (racemic) [Example 93, 5-(trans-2-(1H-1,2,3-Triazol-4-yl)cyclopropyl)-1-(3′-((S)-1-cyclohexylethoxy)-[1,1′-biphenyl]-3-yl)-1H-pyrazole-4-carboxylic Acid]	1 to 10 nM	
CC(Cc1cccc(-c2cccc(-n3ncc(C(=O)O)c3[C@@H]3C[C@H]3c3cn(C)nn3)c2)c1)C1CCCCC1 (single isomer, unassigned) [Example 116f, 1-(3′-((R) or (S)-2-Cyclohexylpropyl)-[1,1′-biphenyl]-3-yl)-5-((1R,2R)-2-(1-methyl-1H-1,2,3-triazol-4-yl)cyclopropyl)-1H-pyrazole-4-carboxylic Acid]		EC50 [2]: 1 to 10 nM; IC50 [3]: 10 to 100 nM
C[C@H](Oc1cccc(-c2cccc(-n3ncc(C(=O)O)c3[C@@H]3C[C@H]3c3cn(C)nn3)c2)c1)C1CCCCC1 (racemic) [Example 75, 1-(3′-((S)-1-Cyclohexylethoxy)-[1,1′-biphenyl]-3-yl)-5-(trans-2-(1-methyl-1H-1,2,3-triazol-4-yl)cyclopropyl)-1H-pyrazole-4-carboxylic Acid]		EC50 ([2]; Homo sapiens, BEAS-2B, 48 h): 1 to 10 nM
C[C@H](Oc1cccc(-c2cccc(-n3ncc(C(=O)O)c3[C@@H]3C[C@H]3c3cn(CC(F)(F)F)nn3)c2)c1)C1CCCCC1 (racemic) [Example 89, 1-(3′-((S)-1-Cyclohexylethoxy)-[1,1′-biphenyl]-3-yl)-5-(trans-2-(1-(2,2,2-trifluoroethyl)-1H-1,2,3-triazol-4-yl)cyclopropyl)-1H-pyrazole-4-carboxylic acid]	1 to 10 nM	
C[C@@H]1Cc2ccccc2S(=O)(=O)N(Cc2cccc(-c3cccc(-n4ncc(C(=O)O)c4[C@@H]4C[C@H]4c4cn(C)nn4)c3)c2)C1 (racemic) [Example 137, 1-(3′-(((R)-4-methyl-1,1-dioxido-4,5-dihydrobenzo[f][1,2]thiazepin-2(3H)-yl)methyl)-[1,1′-biphenyl]-3-yl)-5-((1,2-trans)-2-(1-methyl-1H-1,2,3-triazol-4-yl)cyclopropyl)-1H-pyrazole-4-carboxylic acid]	10 to 100 nM	
C[C@H](Oc1cccc(-c2cccc(-n3ncc(C(=O)O)c3[C@@H]3C[C@H]3c3cn(C4CC4)nn3)c2)c1)C1CCCCC1 (racemic) [Example 79, 1-(3′-((S)-1-Cyclohexylethoxy)-[1,1′-biphenyl]-3-yl)-5-(trans-2-(1-cyclopropyl-1H-1,2,3-triazol-4-yl)cyclopropyl)-1H-pyrazole-4-carboxylic acid]	1 to 10 nM	
C[C@H]1Cc2ccccc2S(=O)(=O)N(Cc2cccc(-c3cccc(-n4ncc(C(=O)O)c4[C@@H]4C[C@H]4c4cn(C)nn4)c3)c2)C1 (racemic) [Example 136, 1-(3′-(((S)-4-methyl-1,1-dioxido-4,5-dihydrobenzo[f][1,2]thiazepin-2(3H)-yl)methyl)-[1,1′-biphenyl]-3-yl)-5-((1,2-trans)-2-(1-methyl-1H-1,2,3-triazol-4-yl)cyclopropyl)-1H-pyrazole-4-carboxylic acid]	100 to 1000 nM	
